Source: paper PMC4186413, “Identification of metabolic pathways and enzyme systems involved in the in vitro human hepatic metabolism of dronedarone, a potent new oral antiarrhythmic drug” (Pharmacology Research & Perspectives, 2014)

Experiments:
FMO-1, -3, and -5 = assay: Oxidation by recombinant human FMOs; format: in vitro ADME; details: 1 mg/mL, 5 μmol/L, 30 min, NADPH
Excerpt: (§1) Recombinant human CYPs (Supersomes™; BD Gentes, Woburn, MA: CYP1A1, CYP1A2, CYP2A6, CYP2B6, CYP2C8, CYP2C9, CYP2C18, CYP2C19, CYP2D6, CYP2E1, CYP3A4 and CYP3A5), FMOs (Supersomes™: FMO1, FMO3, FMO5), MAOs (Supersomes™: MAO-A and MAO-B), and UGTs (Supersomes™: UGT1A1, UGT1A3, UGT1A4, UGT1A6, UGT1A7, UGT1A8, UGT1A9, UGT1A10, UGT2B4, UGT2B7, UGT2B15, and UGT2B17) expressed in baculovirus-infected insect cells and control microsomes from insect cells infected with wild-type baculovirus were all obtained from BD Gentest (Woburn, MA).
(§2) For oxidative pathways, the assay mixture was composed of human liver microsomes (1 mg·m·L^−1) or microsomes of baculovirus-infected cells expressing human enzymes (100 pmol·mL^−1 for CYPs and 1 mg·mL^−1 for FMOs and MAOs), nicotinamide adenine dinucleotide phosphate reduced form (NADPH) (1 mmol/L), 100 mmol/L potassium phosphate (pH 7.4), and 5 μmol/L of the investigated compound dissolved in DMSO in a final volume of 500 μL.
(§3) The final concentration of DMSO in the reaction mixture was less than 1% (v/v). Initial rate conditions with respect to time and protein concentration for both the disappearance of unchanged drug and the formation of respective metabolites were established in preliminary studies. The enzyme reaction was initiated by addition of NADPH (10 mmol/L aqueous solution) to achieve a final concentration of 1 mmol/L for oxidative CYP- and FMO-dependent reactions or by the drug for MAO-dependent reactions, incubated at 37°C and stopped after 0–30 min by addition of one volume of ice-cold acetonitrile.
(§4) In human liver microsomes and recombinant isoforms, the percentage of metabolism was determined on the basis of unchanged drug disappearance, using the following equation [drawing 1] where UDt = 30 min represents the unchanged drug peak area after a 30-min incubation period and UDt = 0, the unchanged drug peak area at t = 0.
(§5) To identify the specific isoforms that are capable of oxidizing dronedarone and its metabolites, assays were performed using c-DNA-expressed isoforms belonging to CYP- (CYP1A1, -1A2, -2A6, -2B6, -C8, -2C9, -2C18, -2C19, -2D6, -2E1, -3A4, and -3A5), FMO- (FMO-1, -3, and -5) and MAO- (MAO-A and MAO-B) families.
(§6) Figure 5 Contribution of individual CYPs, FMOs and MAOs to the oxidation of dronedarone and its metabolites. Individual CYPs (100 pmol/mL), FMOs (1 mg/mL) and MAOs (1 mg/mL) were incubated with either dronedarone (A) or its metabolites, N-debutyl-dronedarone (B), propanoic acid-dronedarone (C), and phenol-dronedarone (D), at a concentration of 5 μmol/L, for 30 min at 37°C in the presence of NADPH, except for MAOs where incubations were performed in the absence of cofactor. Unchanged drugs were quantified by LC/MS-MS relative to the synthetic references as described in Materials and Methods. Data are expressed as the percentage of oxidation.

[1] = test system: CYP1A1, -1A2, -2A6, -2B6, -C8, -2C9, -2C18, -2C19, -2D6, -2E1, -3A4, and -3A5; assay: Oxidation by the panel of recombinant human CYP isoforms; format: in vitro ADME; details: 100 pmol/mL, 5 μmol/L, 30 min, NADPH; for Oxidation by the other CYP isoforms of the panel: isoforms other than those named for the drug
Excerpt: as §1, §2, §3, §4, §5, §6

CYP3A4 = assay: Contribution of CYP3A4 to hepatocyte clearance (ketoconazole inhibitory effect); format: in vitro ADME, human; details: for Effect of ketoconazole on metabolism in hepatocytes: 5 μmol/L drug; for fm CYP3A4, Mean ± SD: mean of hepatocyte preparations
Experimental: (§7) Experiments were performed in 48-well plastic plates coated with rat tail Collagen type I. Plates were seeded with 0.16 × 10^5 hepatocytes per well in a final volume of 0.2 mL and incubated at 37°C under a 95% humidified air and 5% CO2 atmosphere. After 3 h during which cells were allowed to attach, the medium was renewed with 0.1 mL serum-free medium. Then, the investigated drug or metabolic probe(s) were added directly to the incubation medium in the absence or the presence of inhibitors such as either ketoconazole as a specific and potent CYP3A inhibitor (3 μmol/L final concentration), clorgyline (0.25 μmol/L final concentration) as a potent MAO-A inhibitor or ABT as a potent but nonselective CYP isoforms inhibitor (1 mmol/L final concentration) (Fabre et al. [1988]; Bourrié et al. [1996]; Klieber et al. [2008]). Regardless of the final concentration investigated, the final solvent (DMSO) concentration never exceeded 0.2% (v/v).
(§8) To determine the metabolism of the different compounds (metabolic probes, dronedarone, N-debutyl-dronedarone, propanoic acid-dronedarone, phenol-dronedarone, and C-dealkyl-dronedarone), kinetic studies were performed over 0–24 h. For each time point, 0.1 mL of acetonitrile was added to the specific well for protein precipitation, and both extracellular medium and the cell fraction were scraped together. Cell extracts were transferred to a glass tube and stored at −20°C until analysis. Before analysis, cell homogenates were sonicated for a few seconds, homogenized and centrifuged at 6000 g for 10 min. Supernatant fluids were then analyzed for the different drugs and their specific metabolites.
(§9) The fraction metabolized (fm) by MAO, CYP3A or total CYPs was determined using the following equation: [drawing 3] where: kei is the elimination rate constant (expressed in h^−1) in the presence of the inhibitor.
(§10) The kinetics of drug disappearance were investigated using four different cryopreserved human hepatocyte preparations in primary cultures following incubation with either dronedarone or its metabolites at a concentration of 5 μmol/L. Incubations were performed either in the absence, that is control conditions, or in the presence of enzyme system inhibitors such as 3 μmol/L ketoconazole (specific and potent inhibitor of CYP3A4/5), 1 mmol/L ABT (a potent and […] inhibitor of total CYPs), or 0.25 μmol/L clorgyline (a potent MAO-A inhibitor) (Dorris [1982]). Kinetic studies were performed over 24 h.

Total CYPs = assay: Contribution of total CYPs to hepatocyte clearance (1-aminobenzotriazole inhibitory effect); format: in vitro ADME, human; details: for Effect of ABT on metabolism in hepatocytes (words): 1 mmol/L ABT, 5 μmol/L drug; for fm Total CYPs, Mean ± SD: mean of hepatocyte preparations
Experimental: as §7, §8, §9, §10

CYP2D6 = molecular target: T1, CYP2D6 (Homo sapiens, UniProt P10635); assay: Oxidation by recombinant human CYP2D6; format: in vitro ADME; details: for Percentage of oxidation (unchanged drug disappearance) by CYP2D6: 100 pmol/mL, 5 μmol/L, 30 min, NADPH
T1 construct: purchased BD Gentest (Woburn, MA); host or cells: baculovirus-infected insect cells
Excerpt: as §1, §2, §3, §4, §5
Figure 5 Contribution of individual CYPs, FMOs and MAOs to the oxidation of dronedarone and its metabolites. […] Unchanged drugs were quantified by LC/MS-MS relative to the synthetic references as described in Materials and Methods. Data are expressed as the percentage of oxidation.

[2] = BD-91, 1 mmol/L 1-aminobenzotriazole
[3] = BD-296, 1 mmol/L 1-aminobenzotriazole
[4] = HU-1358, 1 mmol/L 1-aminobenzotriazole
[5] = IVT-IBG, 1 mmol/L 1-aminobenzotriazole

T1 sequence (P10635 whole entry): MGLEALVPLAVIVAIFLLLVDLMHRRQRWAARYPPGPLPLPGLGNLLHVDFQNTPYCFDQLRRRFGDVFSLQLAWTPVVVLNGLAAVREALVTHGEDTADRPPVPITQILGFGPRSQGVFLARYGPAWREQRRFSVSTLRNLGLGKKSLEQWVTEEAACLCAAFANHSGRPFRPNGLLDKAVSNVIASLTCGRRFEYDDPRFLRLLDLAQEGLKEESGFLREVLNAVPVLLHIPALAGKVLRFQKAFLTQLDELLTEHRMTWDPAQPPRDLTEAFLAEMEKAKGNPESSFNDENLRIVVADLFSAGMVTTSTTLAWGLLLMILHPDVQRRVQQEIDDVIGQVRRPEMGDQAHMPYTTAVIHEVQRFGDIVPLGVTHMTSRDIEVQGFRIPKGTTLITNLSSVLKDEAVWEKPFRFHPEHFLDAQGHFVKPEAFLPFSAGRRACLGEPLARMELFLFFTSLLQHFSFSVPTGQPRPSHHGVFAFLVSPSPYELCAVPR

Row | Oxidation by FMOs (FMO-1, -3, and -5) | Metabolism by any of the different CYPs [1] | Effect of ketoconazole on metabolism in hepatocytes (CYP3A4; 3 μmol/L ketoconazole) | Effect of ABT on metabolism in hepatocytes (words) (Total CYPs) | fm CYP3A4 (CYP3A4; BD-91, 3 μmol/L ketoconazole) | fm CYP3A4 (CYP3A4; BD-296, 3 μmol/L ketoconazole) | fm CYP3A4 (CYP3A4; HU-1358, 3 μmol/L ketoconazole) | fm CYP3A4 (CYP3A4; IVT-IBG, 3 μmol/L ketoconazole) | fm CYP3A4, Mean ± SD (CYP3A4; 3 μmol/L ketoconazole) | Percentage of oxidation (unchanged drug disappearance) by CYP2D6 (CYP2D6) | fm Total CYPs (Total CYPs; [2]) | fm Total CYPs (Total CYPs; [3]) | fm Total CYPs (Total CYPs; [4]) | fm Total CYPs (Total CYPs; [5]) | fm Total CYPs, Mean ± SD (Total CYPs; 1 mmol/L 1-aminobenzotriazole) | Metabolite formed, as percent of initial dronedarone concentration, with CYP2D6 (CYP2D6; 5 μmol/L dronedarone, end of 30-min incubation) | Effect of ABT on metabolism in hepatocytes (words) (Total CYPs; listed as phenol-dronedarone) | SMILES | Oxidation by the other CYP isoforms of the panel [1]
1 | not metabolized | not metabolized | no effect | no effect | – | – | – | – | – | – | – | – | – | – | – | – | – | CCCCN(CCCC)CCCOc1ccc(C(=O)O)cc1 [C-dealkyl-dronedarone] | –
2 | not involved | – | predominant inhibitory effect | predominant inhibitory effect | 95% | 95% | 84% | 80% | 89 ± 7% | 50% | 98% | 99% | 98% | 95% | 98 ± 2% | – | – | CCCCc1oc2ccc(NS(C)(=O)=O)cc2c1C(=O)c1ccc(OCCCN(CCCC)CCCC)cc1.Cl [Dronedarone, N-(2-Butyl-3-(4-(3-(dibutylamino)propoxy)benzoyl)-5-benzofuranyl)methanesulfonamide, hydrochloride] | less than 15%
3 | contributed to a very small extent | – | did not contribute | did not contribute | – | – | – | – | – | 94% | – | – | – | – | – | – | no significant effect | CCCCc1oc2ccc(NS(C)(=O)=O)cc2c1C(=O)c1ccc(O)cc1 [Phenol-dronedarone] | contributed to a very small extent

Row | SMILES | Oxidation by FMOs (FMO-1, -3, and -5) | Metabolism by any of the different CYPs [1] | Effect of ketoconazole on metabolism in hepatocytes (CYP3A4; 3 μmol/L ketoconazole) | Effect of ABT on metabolism in hepatocytes (words) (Total CYPs) | fm CYP3A4 (CYP3A4; BD-91, 3 μmol/L ketoconazole) | fm CYP3A4 (CYP3A4; BD-296, 3 μmol/L ketoconazole) | fm CYP3A4 (CYP3A4; HU-1358, 3 μmol/L ketoconazole) | fm CYP3A4 (CYP3A4; IVT-IBG, 3 μmol/L ketoconazole) | fm CYP3A4, Mean ± SD (CYP3A4; 3 μmol/L ketoconazole) | Percentage of oxidation (unchanged drug disappearance) by CYP2D6 (CYP2D6) | fm Total CYPs (Total CYPs; [2]) | fm Total CYPs (Total CYPs; [3]) | fm Total CYPs (Total CYPs; [4]) | fm Total CYPs (Total CYPs; [5]) | fm Total CYPs, Mean ± SD (Total CYPs; 1 mmol/L 1-aminobenzotriazole) | Metabolite formed, as percent of initial dronedarone concentration, with CYP2D6 (CYP2D6; 5 μmol/L dronedarone, end of 30-min incubation) | Effect of ABT on metabolism in hepatocytes (words) (Total CYPs; listed as phenol-dronedarone) | Oxidation by the other CYP isoforms of the panel [1]
4 | CCCCNCCCOc1ccc(C(=O)c2c(CCCC)oc3ccc(NS(C)(=O)=O)cc23)cc1 [N-debutyl-dronedarone] | Neither other CYPs nor FMOs metabolized N-debutyl-dronedarone to any significant extent | – | no inhibitory effect | moderately decreased its metabolic rate | 7% | 4% | 8% | 0% | 5 ± 3% | 55% | 67% | 48% | 51% | 54% | 55 ± 7% | less than 1% | – | Neither other CYPs nor FMOs metabolized N-debutyl-dronedarone to any significant extent
5 | CCCCc1oc2ccc(NS(C)(=O)=O)cc2c1C(=O)c1ccc(OCCC(=O)O)cc1 [Propanoic acid-dronedarone] | Neither other CYPs, nor FMOs and MAOs metabolized propanoic acid-dronedarone to any significant extent | – | very minor inhibitory effect | potently inhibited | 36% | 41% | 33% | 34% | 36 ± 3% | – | 87% | 92% | 91% | 89% | 90 ± 3% | – | – | Neither other CYPs, nor FMOs and MAOs metabolized propanoic acid-dronedarone to any significant extent
